This note sets out measurements from ChEMBL document CHEMBL1132706 (J Med Chem, 1999).

Bounds are passed on as bounds.

In test [1] the test system is CEM-SS. The test is described as follows: Compound was evaluated for the cytoprotection of CEM-SS cells by XTT cytoprotection assay through the NCI AIDS Screen. In kind it is functional, cell-based. To be noted: Homo sapiens. A general note: Tetrazolium assays rely on reduction of a dye to a coloured formazan, in cell work by metabolically active cells.
Test [2] addresses T1, Human immunodeficiency virus type 1 integrase (Human immunodeficiency virus 1, UniProt Q7ZJM1).
Description: Inhibition of HIV-1 integrase by radiolabeled oligonucleotide-based assay integration
For test [3], the target named is T1, Human immunodeficiency virus type 1 integrase. The source holds these as a separate data set.
Description: Compound was evaluated for the inhibitory concentration against HIV-1 integrase by radiolabeled oligonucleotide-based assay 3''-processing
Test [4] relates to CEM-SS. The test can be described thus: Compound was evaluated for the cytoprotection of CEM-SS cells by XTT cytoprotection assay through the NCI AIDS Screen; Not reached due to cytotoxicity. In kind it is functional, cell-based, Homo sapiens.
Test [5] relates to CEM-SS. The test is described as follows: Compound was evaluated for the cytoprotection by XTT cytoprotection assay through the NCI AIDS Screen. In kind it is functional, cell-based. To be noted: Homo sapiens.
In test [6] the test system is CEM-SS. The test is described as follows: Compound was evaluated for the cytoprotection fo CEM-SS cells by XTT cytoprotection assay through the NCI AIDS Screen. In kind it is functional, cell-based. To be noted: Homo sapiens.
In test [7] the test system is CEM-SS. The test can be described thus: Compound was evaluated for the effect of Order of Addition on Cytoprotection at dilution 333, Add at infection. In kind it is functional, Homo sapiens.
Test [8] deals with CEM-SS. The test can be described thus: Compound was evaluated for the effect of Order of Addition on Cytoprotection against HIV-1RF at dilution 100, Add at infection. In kind it is functional, Homo sapiens.
The test system of test [9] is CEM-SS. The test can be described thus: Compound was evaluated for the effect of Order of Addition on Cytoprotection against HIV-1RF at dilution 100, Pretreat and add 1 uM. In kind it is functional, Homo sapiens.
Test [10] relates to CEM-SS. The test can be described thus: Compound was evaluated for the effect of Order of Addition on Cytoprotection against HIV-1RF at dilution 100, Pretreat and add 10 uM. In kind it is functional, Homo sapiens.
Test [11] relates to CEM-SS. The test is described as follows: Compound was evaluated for the effect of Order of Addition on Cytoprotection against HIV-1RF at dilution 100, Pretreat with 100 uM. In kind it is functional, Homo sapiens.
For test [12], the system named is CEM-SS. The test can be described thus: Compound was evaluated for the effect of Order of Addition on Cytoprotection against HIV-1RF at dilution 1000, Add at infection. In kind it is functional, Homo sapiens.
Test [13] deals with CEM-SS. The test is described as follows: Compound was evaluated for the effect of Order of Addition on Cytoprotection against HIV-1RF at dilution 1000, Pretreat and add 1 uM. In kind it is functional, Homo sapiens.
Test [14] has as its system CEM-SS. The test is described as follows: Compound was evaluated for the effect of Order of Addition on Cytoprotection against HIV-1RF at dilution 1000, Pretreat and add 10 uM. In kind it is functional, Homo sapiens.
Test [15] concerns CEM-SS. The test is described as follows: Compound was evaluated for the effect of Order of Addition on Cytoprotection against HIV-1RF at dilution 1000, Pretreat with 100 uM. In kind it is functional, Homo sapiens.
Test [16] concerns CEM-SS. The test can be described thus: Compound was evaluated for the effect of Order of Addition on Cytoprotection against HIV-1RF at dilution 333, Pretreat and add 10 uM. In kind it is functional, Homo sapiens.
Test [17] deals with CEM-SS. The test is described as follows: Compound was evaluated for the effect of Order of Addition on Cytoprotection against HIV-1RF at dilution 333, Pretreat with 100 uM. In kind it is functional, Homo sapiens.
In test [18] the test system is CEM-SS. The test is described as follows: Compound was evaluated for the effect of Order of Addition on Cytoprotection against HIV-1RF at dilution 333,Pretreat and add 1 uM. In kind it is functional, Homo sapiens.

T1 sequence (Q7ZJM1 whole entry): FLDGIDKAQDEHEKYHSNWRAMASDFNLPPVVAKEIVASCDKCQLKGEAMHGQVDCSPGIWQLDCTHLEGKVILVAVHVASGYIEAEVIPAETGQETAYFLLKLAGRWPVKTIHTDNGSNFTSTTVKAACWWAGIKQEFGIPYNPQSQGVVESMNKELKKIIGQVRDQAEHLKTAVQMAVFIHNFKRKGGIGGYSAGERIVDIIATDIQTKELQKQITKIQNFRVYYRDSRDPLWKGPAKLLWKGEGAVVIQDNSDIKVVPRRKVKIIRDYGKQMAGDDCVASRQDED

For `CC(=O)Oc1ccc(/C=C/C(=O)O[C@@H](C)[C@H](C)OC(=O)/C=C/c2ccc(OC(C)=O)c(OC(C)=O)c2)cc1OC(C)=O`, the IC50 (commonly the midpoint of a concentration-inhibition curve) with CEM-SS [1] is 5.71 µM; in test [2], above 333 µM; in [3], above 333 µM.

On to `O=C(/C=C/c1ccc(O)c(O)c1)OCCOC(=O)/C=C/c1ccc(O)c(O)c1`, for which, in the test on CEM-SS [4], the EC50 result is “Not reached”. For the same compound, the IC50 in the test on CEM-SS [5] is 10 µM; in test [2] it was 0.4 µM; in test [3] it was 0.4 µM.

For `CC(=O)Oc1ccc(/C=C/C(=O)NCC(NC(=O)/C=C/c2ccc(OC(C)=O)c(OC(C)=O)c2)C(=O)O)cc1OC(C)=O` (stereo not drawn), the IC50 in test [2] and in test [3] was 4.1 µM each time.

In the case of `COC(=O)[C@@H](CNC(=O)/C=C/c1ccc(OC)c(OC)c1)NC(=O)/C=C/c1ccc(OC)c(OC)c1`, the IC50 in test [2] and in [3] was above 1000 µM each time.

Turning to `O=C(/C=C/c1ccc(O)c(O)c1)OCCCOC(=O)/C=C/c1ccc(O)c(O)c1`, in the test with CEM-SS [4], the EC50 entry is reported as “Not reached”. The results for the IC50 (in the test on CEM-SS [6]; in [2]; in test [3]) were 13.9 µM, 7.5 µM and 27.5 µM, respectively.

Turning to `C[C@H](OC(=O)/C=C/c1ccc(O)c(O)c1)[C@H](C)OC(=O)/C=C/c1ccc(O)c(O)c1`, in the test on CEM-SS [4], the EC50 entry is given as “Not reached”. The IC50 was 3.64 µM in the test with CEM-SS [1], 7.8 µM in test [2] and above 38.4 µM in test [3].

As for `COC(=O)[C@@H](CNC(=O)/C=C/c1ccc(OC(C)=O)c(OC(C)=O)c1)NC(=O)/C=C/c1ccc(OC(C)=O)c(OC(C)=O)c1`, the values for the IC50 in test [2] and in [3] were 10 µM and 10.9 µM, respectively.

Turning to `CC(=O)NC(COC(=O)/C=C/c1ccc(O)c(O)c1)C(=O)O` (stereo not drawn), the IC50 came out at 111 µM in test [2] and 333 µM in test [3].

As for `COC(=O)C(COC(=O)/C=C/c1ccc(OC(C)=O)c(OC(C)=O)c1)OC(=O)/C=C/c1ccc(OC(C)=O)c(OC(C)=O)c1` (stereo not drawn), the IC50 in test [2] and in test [3] was 10.1 µM each time.

For `COc1ccc(/C=C/C(=O)NC[C@@H](NC(=O)/C=C/c2ccc(OC)c(OC)c2)C(=O)O)cc1OC`, the IC50 in [2] and in test [3] was above 1000 µM throughout.

`COC(=O)[C@H](COC(=O)/C=C/c1ccc(OC(C)=O)c(OC(C)=O)c1)NC(=O)/C=C/c1ccc(OC(C)=O)c(OC(C)=O)c1`: the IC50 in test [2] came out at 3.8 µM; in [3], 2.8 µM.

For the compound `O=C(/C=C/c1ccc(O)c(O)c1)O[C@H](C(=O)O)[C@H](OC(=O)/C=C/c1ccc(O)c(O)c1)C(=O)O` [CHICORIC ACID], the Control turned out to be 73% in the test on CEM-SS [7]; 141% in the test on CEM-SS [8]; 56% in the test with CEM-SS [9]; 114% with CEM-SS [10]; 108% in the test on CEM-SS [11]; 60% in the test on CEM-SS [12]. Moreover, the Control was 50% with CEM-SS [13]; 135% in the test with CEM-SS [14]; 168% in the test with CEM-SS [15]; 82% in the test on CEM-SS [16]; 59% in the test on CEM-SS [17]; 92% in the test with CEM-SS [18].

For `COC(=O)C(COC(=O)/C=C/c1ccc(OC(C)=O)c(OC(C)=O)c1)NC(C)=O` (stereo not drawn), the IC50 in [2] and in [3] was above 333 µM throughout.

On to `O=C(/C=C/c1ccc(O)c(O)c1)NCCOC(=O)/C=C/c1ccc(O)c(O)c1`, for which the results for the IC50 (in the test on CEM-SS [1]; in test [2]; in test [3]) were 9.22 µM, 6.5 µM and above 27.5 µM, respectively.

With `CC(=O)Oc1ccc(/C=C/C(=O)O[C@H]2CCCC[C@@H]2OC(=O)/C=C/c2ccc(OC(C)=O)c(OC(C)=O)c2)cc1OC(C)=O`, the values for the concentration for half-maximal inhibition (IC50) (in the test on CEM-SS [1]; in test [2]; in test [3]) were 5.76 µM, above 333 µM and above 333 µM, respectively.

As to `CC(=O)Oc1ccc(/C=C/C(=O)OCC(OC(=O)/C=C/c2ccc(OC(C)=O)c(OC(C)=O)c2)C(=O)O)cc1OC(C)=O` (stereo not drawn), the IC50 in [2] amounted to 2.8 µM; in test [3], 2.1 µM.

Turning to `COC(=O)C(COC(=O)/C=C/c1ccc(OC(C)=O)c(OC(C)=O)c1)NC(=O)/C=C/c1ccc(OC(C)=O)c(OC(C)=O)c1` (stereo not drawn), the results for the IC50 in test [2] and in test [3] were 3.2 µM and 2.5 µM, respectively.

Take `O=C(/C=C/c1ccc(O)c(O)c1)O[C@H]1CCCC[C@@H]1OC(=O)/C=C/c1ccc(O)c(O)c1`: the EC50 result with CEM-SS [4] is reported as “Not reached”. The figures for the IC50 (in the test with CEM-SS [1]; in [2]; in [3]) were 5.67 µM, 7.6 µM and above 24.8 µM, respectively.

`O=C(/C=C/c1ccc(O)c(O)c1)NC(COC(=O)/C=C/c1ccc(O)c(O)c1)C(=O)O` (stereo not drawn): the IC50 in test [2] is 1.7 µM; in [3] it was 3.3 µM.

For the compound `COC(=O)[C@@H](COC(=O)/C=C/c1ccc(OC(C)=O)c(OC(C)=O)c1)NC(=O)/C=C/c1ccc(OC(C)=O)c(OC(C)=O)c1`, the IC50 in test [2] was 3.2 µM; in test [3] it was 2.8 µM.

For `CC(=O)Oc1ccc(/C=C/C(=O)OCCOC(=O)/C=C/c2ccc(OC(C)=O)c(OC(C)=O)c2)cc1OC(C)=O`, the IC50 in the test on CEM-SS [1] is 6.7 µM; in test [2], above 100 µM; in test [3], above 100 µM.

As to `CC(=O)Oc1ccc(/C=C/C(=O)OCCCOC(=O)/C=C/c2ccc(OC(C)=O)c(OC(C)=O)c2)cc1OC(C)=O`, the IC50 in [2] and in test [3] was above 333 µM in each case.

For the compound `O=C(/C=C/c1ccc(O)c(O)c1)OCC(OC(=O)/C=C/c1ccc(O)c(O)c1)C(=O)O` (stereo not drawn), the IC50 in test [2] was found to be 1.7 µM; in test [3], 4.2 µM.
